Source: US8354522B2, “Immunostimulatory oligoribonucleotides” (Coley Pharmaceutical GmbH, priority 2005, dated 2013)
Like-named read-outs stand apart in the source and are kept apart here.

Experiments:
Bovine PBMC = assay: Cytokine production by bovine PBMC (48 hours, ELISA); format: cell-based; conditions: 10 μg/ml (H.D.) and 2.5 μg/ml (L.D.)
Procedure: FIG. 11 is a set of bar graphs showing differences between TLR8 ORN (SEQ ID NO:13) and TLR7/8 ORN (SEQ ID NO:21). SEQ ID NO:5 ORN was used as a control. Bovine PBMC were incubated with either 10 μg/ml ORN (HD) or 2.5 μg/ml ORN (LD) for 48 hours. Supernatants were collected and analyzed by ELISA. FIGS. 11a-c show the level of IL-12, IFN-γ, and TNF-alpha, respectively.
The assay was repeated with a TLR8 ORN (SEQ ID NO:13), a TLR 7/8 ORN (SEQ ID NO:21) and a control ORN (SEQ ID NO:5) (Table 3) at both a high dose (H.D., 10 μg/ml) and a low dose (L.D., 2.5 μg/ml).

Human PBMC = assay: Cytokine production upon human PBMC stimulation (ORN complexed to DOTAP, 16 h, ELISA); format: cell-based; parameters: key to IFN-alpha / TNF-alpha: +: cytokine production; −: no cytokine production; conditions: for EC50 / IFN-alpha max activity / TNF-alpha max activity / IFN-alpha production upon PBMC stimulation (in words): human PBMC; for EC50 / IFN-alpha max activity / TNF-alpha max activity: ORN complexed to DOTAP, 16 h; for EC50: full titration 2 μM to 0.9 nM; for IFN-alpha max activity / TNF-alpha max activity: mean max activity at 0.6 μM, 3-6 blood donors; for IFN-alpha / TNF-alpha: human PBMC stimulated for 16 h, supernatant ELISA
How it was run: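 Healthy-donor PBMCs were stimulated for 16 h with ORN complexed to DOTAP (25 μg/ml), titrated in 7 steps of 1/3 from 2 μM (to 0.9 nM). IFN-alpha and TNF-alpha in supernatants were measured by ELISA. Mean/max activity at 0.6 μM and EC50 came from 3-6 donors over two experiments.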

isolated pDC = assay: IFN-alpha production upon isolated pDC stimulation; format: cell-based, human; conditions: 0.5 μM ORN complexed to 10 μg/ml DOTAP, 16 h
Procedure: FIG. 2 is a set of bar graphs depicting ORN induced cytokine production upon isolated pDC (FIG. 2a), monocytes (FIG. 2b) and mDC (FIG. 2c) stimulation. Cells were stimulated with 0.5 μM ORN complexed to 10 μg/ml DOTAP, 0.5 μM CpG ODN or DOTAP or media alone and IFN-alpha (FIG. 2a), TNF-alpha […] and IL-12p40 (FIG. 2c) were measured.
A similar assay testing different ORN sequences was performed using isolated pDC, monocytes and mDC stimulation. Cells were stimulated with 0.5 μM ORN complexed to 10 μg/ml DOTAP, 0.5 μM CpG ODN or DOTAP or media alone. After 16 h the supernatants were harvested and IFN-alpha, TNF-alpha and IL-12p40 levels were measured by ELISA.

Substance | IFN-γ production (Bovine PBMC) | EC50 (Human PBMC; read-out: IFN-alpha EC50) [nM] | EC50 (Human PBMC; read-out: TNF-alpha EC50) [nM] | IFN-alpha max activity (Human PBMC) [pg/mL] | TNF-alpha max activity (Human PBMC) [pg/mL] | IFN-alpha (Human PBMC) | TNF-alpha (Human PBMC) | IFN-alpha production upon PBMC stimulation (in words) (Human PBMC) | IFN-alpha production upon pDC stimulation (in words) (isolated pDC)
C*C*G*U*C*U*G*U*U*G*U*G*U*G*A*C*U*C (CCGUCUGUUGUGUGACUC; listed as RNA, chemistry not fully specified) [SEQ ID NO: 5, reference compound] | stimulated production of IFN-γ |  |  |  |  |  |  |  | 
C*C*G*A*G*C*C*G*C*A*A*U*U*C*C*C [SEQ ID NO: 50] (CCGAGCCGCAAUUCCC; listed as RNA, chemistry not fully specified) |  | 562 | 564 | 2614 | 11141 |  |  |  | 
dN*dN*dN*dN*dN*A*U*A*U*A*U*A*U*dN*dN*dN*dN*dN*dN [SEQ ID NO: 9] |  |  |  |  |  | − | + |  | 
U*U*U*A*U*U*U*A*U*U*U*A*U*U*U*A*U*U*U*A (UUUAUUUAUUUAUUUAUUUA; chemistry not fully specified) [SEQ ID NO: 14] |  |  |  |  |  | + | + | induced IFN-alpha production | 
G*U*A*G*G*C*A*C (GUAGGCAC; phosphorothioate linkages, chemistry not fully specified) [SEQ ID NO: 1] |  |  |  |  |  | − | + |  | 
C*C*G*A*G*C*C*G*A*U*T*U*T*A*C*C (CCGAGCCGAUTUTACC; Oligoribonucleotide, chemistry of T and the '*' linkage is not given here, further chemistry not given here) [SEQ ID NO: 70] |  | 132 | 150 | 1702 | 44904 |  |  |  | 
C*C*G*A*G*C*C*G*A*T*U*U*C*A*C*C [SEQ ID NO: 68] (CCGAGCCGANUUCACC; Oligoribonucleotide, chemistry of T and the '*' linkage is not given here, further chemistry not given here) |  | 18 | 217 | 1821 | 29647 |  |  |  | 
C*C*G*A*G*C*C*G*A*G*U*U*C*A*C*C [SEQ ID NO: 67] (CCGAGCCGAGUUCACC; listed as RNA, chemistry not fully specified) |  | 81 | 79 | 2094 | 40729 |  |  |  | 
A*U*A*U*A*U*A*U*A*U*A*U*A*U*A*U*A*U*A*U (AUAUAUAUAUAUAUAUAUAU; chemistry not fully specified) [SEQ ID NO: 12] |  |  |  |  |  | − | + | no IFN-alpha cytokine production | no IFN-alpha cytokine production
G*U*A*G*U*A*G (GUAGUAG; phosphorothioate linkages, chemistry not fully specified) [SEQ ID NO: 34] |  |  |  |  |  | + | + |  | 
C*C*G*A*G*C*C*G*A*U*U*G*C*A*C*C (CCGAGCCGAUUGCACC; listed as RNA, chemistry not fully specified) [SEQ ID NO: 74] |  | 419 | 329 | 609.1 | 30958 |  |  |  | 
C*C*G*A*G*C*C*G*A*A*G*A*U*A*C*C (CCGAGCCGAAGAUACC; listed as RNA, chemistry not fully specified) [SEQ ID NO: 85] |  | > 2000 | 215 | 193.7 | 17146 |  |  |  | 
A*A*A*U*A*A*A*U*A*A*A*U*A*A*A*U*A*A*A*U (AAAUAAAUAAAUAAAUAAAU; listed as RNA, chemistry not fully specified) [SEQ ID NO: 17] |  |  |  |  |  | − | + |  | 
C*C*G*A*G*C*C*G*C*U*U*A*C*C*C*C (CCGAGCCGCUUACCCC; listed as RNA, chemistry not fully specified) [SEQ ID NO: 53] |  | 244 | 952 | 3091 | 14623 |  |  |  | 
C*C*G*A*G*C*C*G*A*A*G*G*C*A*C*C (CCGAGCCGAAGGCACC; listed as RNA, chemistry not fully specified) [SEQ ID NO: 56] |  | > 2000 |  | 59.84 | 4430 |  |  |  | 
A*A*U*A*A*U*A*A*U*A*A*U*A*A*U*A*A*U*A*A (AAUAAUAAUAAUAAUAAUAA; listed as RNA, chemistry not fully specified) [SEQ ID NO: 16] |  |  |  |  |  | − | + |  | 
C*C*G*A*G*C*C*G*A*A*U*U*U*A*C*C (CCGAGCCGAAUUUACC; listed as RNA, chemistry not fully specified) [SEQ ID NO: 60] |  | 109 | 187 | 1463 | 36562 |  |  |  | 
C*C*G*A*G*C*C*G*A*A*U*A*A*C*C*C (CCGAGCCGAAUAACCC; listed as RNA, chemistry not fully specified) [SEQ ID NO: 40] |  | ≥ 1500 | 352 | 235.3 | 18083 |  |  |  | 
C*C*G*A*G*C*C*G*A*U*U*U*A*A*C*C (CCGAGCCGAUUUAACC; listed as RNA, chemistry not fully specified) [SEQ ID NO: 73] |  | 55 | 163 | 1395 | 31619 |  |  |  | 
G*U*G*U*G*U*G*U*G*U*G*U*G*U*G*U*G*U*G*U (GUGUGUGUGUGUGUGUGUGU; listed as RNA, chemistry not fully specified) [SEQ ID NO: 20] |  |  |  |  |  | + | + |  | 
C*C*G*A*G*C*C*G*A*U*U*G*A*A*C*C (CCGAGCCGAUUGAACC; listed as RNA, chemistry not fully specified) [SEQ ID NO: 76] |  | 1540 | 109 | 448.6 | 26371 |  |  |  | 
C*C*G*A*G*C*C*G*C*U*U*A*A*C*C*C (CCGAGCCGCUUAACCC; listed as RNA, chemistry not fully specified) [SEQ ID NO: 49] |  | 375 | 350 | 3367 | 18039 |  |  |  | 
C*C*G*A*G*C*C*G*C*A*U*A*U*C*C*C (CCGAGCCGCAUAUCCC; listed as RNA, chemistry not fully specified) [SEQ ID NO: 36] |  | ≥ 1500 | 850 | 110.4 | 18063 |  |  |  | 
C*C*G*A*G*C*C*G*A*G*U*U*U*A*C*C (CCGAGCCGAGUUUACC; listed as RNA, chemistry not fully specified) [SEQ ID NO: 58] |  | 63 | 203 | 1760 | 36627 |  |  |  | 
C*C*G*A*G*C*C*G*A*G*U*U*C*A*C*C [SEQ ID NO: 77] (CCGAGCCGAGUUCACC; listed as RNA, chemistry not fully specified) |  | 151 | 257 | 2519 | 21820 |  |  |  | 
A*A*A*A*U*A*A*A*A*U*A*A*A*A*U*A*A*A*A*U (AAAAUAAAAUAAAAUAAAAU; listed as RNA, chemistry not fully specified) [SEQ ID NO: 18] |  |  |  |  |  | − | + |  | 
